Data published in PubChem BioAssay AID1963424 (Molecular Pharmacology Branch, DTP, NCI, 2024).
Values joined by “and” are separate entries in the source; they are usually repeats but may differ in a detail not shown here. Equal values may be shown once. One block for each compound: values may come before it.

Tested on: 327498-153-R-J2-PDC complex spheroid growth, % test/control
Experiment: Anticancer human tumor 327498-153-R-J2-PDC patient-derived uterine carcinosarcoma cell line growth inhibition [Asc]
Details: for viability, T/C: stronger effect = lower value
In short: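 Spheroid model: tumor line + HUVEC + hMSC. Single agents and combinations; top conc. at/near clinical Cmax (10 microM if undetermined), half-log dilutions. DMSO stocks at 800-fold test concentration.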

[1] = curve of first compound, second compound 0.1 µM
[2] = curve of first compound, second compound 0.316 µM
[3] = curve of first compound, second compound 1 µM
[4] = curve of first compound, second compound 3.16 µM
[5] = curve of first compound, second compound 10 µM
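Note: spheroids exposed to compound for 7 days after 3 days of growth.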
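Throughout, for viability, T/C: 100% = DMSO vehicle control wells.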

IC50 [1]: 147 nM | IC50 [2]: 136 nM | IC50 [3]: 106 nM | IC50 [4]: 122 nM | IC50 [5]: 172 nM
Structure (SMILES): CCN1C(C(=O)NC23CCC(C(=O)O)(CC2)CC3)C(c2cccc(Cl)c2F)C2(C(=O)Nc3cc(Cl)ccc32)C12CCCCC2 (configuration not stated) + Cc1c(S(C)(=O)=O)c(-c2cc(F)cc(N3CCN(c4ccc(NS(=O)(=O)c5ccc(NC(CCN6CCC(C(=O)OCCCP(=O)(O)O)CC6)CSc6ccccc6)c(S(=O)(=O)C(F)(F)F)c5)cc4)CC3)c2)c(-c2ccc(Cl)cc2)n1C(C)C
viability, T/C (second compound 0.1 µM, first compound 0.00949 µM): 92.5% | viability, T/C (second compound 0.1 µM, first compound 0.03 µM): 84.5% | viability, T/C (second compound 0.1 µM, first compound 0.0949 µM): 64.8% | viability, T/C (second compound 0.1 µM, first compound 0.3 µM): 26.6% | viability, T/C (second compound 0.1 µM, first compound 0.949 µM): 6.43% | viability, T/C (second compound 0.1 µM, first compound 3 µM): 2% | viability, T/C (second compound 0.316 µM, first compound 0.00949 µM): 87.4% | viability, T/C (second compound 0.316 µM, first compound 0.03 µM): 89% | viability, T/C (second compound 0.316 µM, first compound 0.0949 µM): 64.4% | viability, T/C (second compound 0.316 µM, first compound 0.3 µM): 17% | viability, T/C (second compound 0.316 µM, first compound 0.949 µM): 8.41% | viability, T/C (second compound 0.316 µM, first compound 3 µM): 2.1% | viability, T/C (second compound 1 µM, first compound 0.00949 µM): 91.4% | viability, T/C (second compound 1 µM, first compound 0.03 µM): 94.5% | viability, T/C (second compound 1 µM, first compound 0.0949 µM): 50.6% | viability, T/C (second compound 1 µM, first compound 0.3 µM): 17.8% | viability, T/C (second compound 1 µM, first compound 0.949 µM): 4.84% | viability, T/C (second compound 1 µM, first compound 3 µM): 1.36% | viability, T/C (second compound 3.16 µM, first compound 0.00949 µM): 78.9% | viability, T/C (second compound 3.16 µM, first compound 0.03 µM): 79% | viability, T/C (second compound 3.16 µM, first compound 0.0949 µM): 56.1% | viability, T/C (second compound 3.16 µM, first compound 0.3 µM): 23.8% | viability, T/C (second compound 3.16 µM, first compound 0.949 µM): 6.76% | viability, T/C (second compound 3.16 µM, first compound 3 µM): 1.6% | viability, T/C (second compound 10 µM, first compound 0.00949 µM): 166% | viability, T/C (second compound 10 µM, first compound 0.03 µM): 162% | viability, T/C (second compound 10 µM, first compound 0.0949 µM): 80.9% | viability, T/C (second compound 10 µM, first compound 0.3 µM): 23.5% | viability, T/C (second compound 10 µM, first compound 0.949 µM): 9.14% | viability, T/C (second compound 10 µM, first compound 3 µM): 1.51%

IC50 (curve of compound): 45.9 nM and 40.1 nM and 50.9 nM
Structure (SMILES): NC(=O)C(=Cn1cnc(-c2cc(C(F)(F)F)cc(C(F)(F)F)c2)n1)c1cncnc1
viability, T/C (compound 0.000949 µM): 89.1% and 91.1% and 101% | viability, T/C (compound 0.003 µM): 102% and 93.5% and 96.2% | viability, T/C (compound 0.00949 µM): 83.6% and 84.6% and 93.2% | viability, T/C (compound 0.03 µM): 71.5% and 61.5% and 78% | viability, T/C (compound 0.0949 µM): 14.8% and 17.4% and 17.2% | viability, T/C (compound 0.3 µM): 3.13% and 3.94%

IC50 [1]: > 100 nM | IC50 [2]: > 100 nM | IC50 [3]: > 100 nM | IC50 [4]: > 100 nM | IC50 [5]: > 100 nM
Structure (SMILES): NC1CCC(NC2CC2c2ccccc2)CC1 (configuration not stated) + Cc1c(S(C)(=O)=O)c(-c2cc(F)cc(N3CCN(c4ccc(NS(=O)(=O)c5ccc(NC(CCN6CCC(C(=O)OCCCP(=O)(O)O)CC6)CSc6ccccc6)c(S(=O)(=O)C(F)(F)F)c5)cc4)CC3)c2)c(-c2ccc(Cl)cc2)n1C(C)C
viability, T/C (second compound 0.1 µM, first compound 0.000316 µM): 98.9% | viability, T/C (second compound 0.1 µM, first compound 0.001 µM): 109% | viability, T/C (second compound 0.1 µM, first compound 0.00316 µM): 104% | viability, T/C (second compound 0.1 µM, first compound 0.01 µM): 95.6% | viability, T/C (second compound 0.1 µM, first compound 0.0316 µM): 100% | viability, T/C (second compound 0.1 µM, first compound 0.1 µM): 98% | viability, T/C (second compound 0.316 µM, first compound 0.000316 µM): 89.6% | viability, T/C (second compound 0.316 µM, first compound 0.001 µM): 99.5% | viability, T/C (second compound 0.316 µM, first compound 0.00316 µM): 95% | viability, T/C (second compound 0.316 µM, first compound 0.01 µM): 88.3% | viability, T/C (second compound 0.316 µM, first compound 0.0316 µM): 93.8% | viability, T/C (second compound 0.316 µM, first compound 0.1 µM): 95.5% | viability, T/C (second compound 1 µM, first compound 0.000316 µM): 94.2% | viability, T/C (second compound 1 µM, first compound 0.001 µM): 96.6% | viability, T/C (second compound 1 µM, first compound 0.00316 µM): 90.4% | viability, T/C (second compound 1 µM, first compound 0.01 µM): 91.5% | viability, T/C (second compound 1 µM, first compound 0.0316 µM): 96.8% | viability, T/C (second compound 1 µM, first compound 0.1 µM): 90.6% | viability, T/C (second compound 3.16 µM, first compound 0.000316 µM): 98.9% | viability, T/C (second compound 3.16 µM, first compound 0.001 µM): 91.4% | viability, T/C (second compound 3.16 µM, first compound 0.00316 µM): 92.6% | viability, T/C (second compound 3.16 µM, first compound 0.01 µM): 86.3% | viability, T/C (second compound 3.16 µM, first compound 0.0316 µM): 96.8% | viability, T/C (second compound 3.16 µM, first compound 0.1 µM): 90.1% | viability, T/C (second compound 10 µM, first compound 0.000316 µM): 177% | viability, T/C (second compound 10 µM, first compound 0.001 µM): 173% | viability, T/C (second compound 10 µM, first compound 0.00316 µM): 160% | viability, T/C (second compound 10 µM, first compound 0.01 µM): 158% | viability, T/C (second compound 10 µM, first compound 0.0316 µM): 168% | viability, T/C (second compound 10 µM, first compound 0.1 µM): 181%
